# pIC50: −log10 of the molar value. Structures can show the parent of a compound that is named as a salt.
# Experiments:
# Human FXa = molecular target: T1, Human FXa (Homo sapiens, UniProt P00742); assay: Determination of anti-factor Xa (FXa) activity, synthetic substrate S-2222; type: biochemical; details: S-2222, 37° C., pH 8.4, read-out: Experimental Example 1: anti-FXa activity, IC50
# T1 construct: Human FXa [Enzyme research Laboratories (USA)] enzyme; purchased Enzyme Research Laboratories (USA)
# T1 sequence (P00742 235-488 limits assumed): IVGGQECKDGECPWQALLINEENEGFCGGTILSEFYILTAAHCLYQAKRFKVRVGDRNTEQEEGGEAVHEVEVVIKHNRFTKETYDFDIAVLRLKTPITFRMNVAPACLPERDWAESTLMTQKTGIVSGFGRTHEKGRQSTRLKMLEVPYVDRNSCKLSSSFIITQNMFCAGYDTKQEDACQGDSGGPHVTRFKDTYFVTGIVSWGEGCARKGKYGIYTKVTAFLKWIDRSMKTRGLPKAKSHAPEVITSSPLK
# T1 sequence (P00742 41-179 partner limits assumed): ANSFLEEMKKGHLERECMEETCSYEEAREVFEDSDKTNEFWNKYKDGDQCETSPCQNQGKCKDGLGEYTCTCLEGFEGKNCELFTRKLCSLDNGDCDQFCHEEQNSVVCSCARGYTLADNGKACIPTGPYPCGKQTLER
# Description: Determination of Anti-factor Xa (FXa) Activity
# Human FXa [Enzyme research Laboratories (USA)] enzyme (40 μl, 0.16U/ml) and test compounds (40 l) adjusted to various concentrations were incubated in 0.1M Tris (Tris-hydroxymethyl-aminomethane) buffer (pH 8.4) containing 0.2M sodium chloride (herein to be referred to as 0.1 M tris-0.2M NaCl buffer) (40 μl) at 37° C. for 10 min. A synthetic substrate S-2222 (Daiichi Pure Chemical (Tokyo, Japan), 40 μl) adjusted to 0.8 mM was added and the mixture was incubated at 37° C. for 10 min. The reaction was stopped by addition of 60% acetic acid (40 μl) and absorbance at 405 nm was measured by Model 3550 (BIO-RAD). For the control, the solvent was used instead of the test compound.
# Human FIIa = molecular target: T2, Human FIIa (Homo sapiens, UniProt P00734); assay: Determination of anti-factor IIa (FIIa) activity, synthetic substrate S-2238; type: biochemical; details: S-2238, 37° C., pH 8.4, read-out: Experimental Example 2: anti-FIIa activity, IC50
# T2 construct: purchased Sigma
pIC50 (Human FXa),pIC50 (Human FIIa),SMILES
6.05,< 5.00,"CCOC(=O)C(=O)N(Cc1nc2cc(C(=N)N)ccc2n1CC(=O)NC1CCCCC1)C1CCN(c2ccncc2)CC1 [Example 60, 1-(Cyclohexylcarbamoylmethyl)-2-[N-[1-(pyridin-4-yl)piperidin-4-yl]-N-ethoxalylaminomethyl]benzimidazole-5-carboxamidine Dihydrochloride]"
6.70,< 5.00,"COC(=O)c1cnccc1N1CCC(COc2ccc3c(c2)CN(C(=N)N)CC3)CC1 [Example 34, 4-[4-(2-Amidino-1,2,3,4-tetrahydroisoquinolin-7-yloxymethyl)-piperidin-1-yl]pyridine-3-carboxylic Acid Methyl Ester Dihydrochloride]"
6.22,< 5.00,"N/C(=N/O)N1CCc2ccc(OCC3CCN(c4ccncc4)CC3)cc2C1 [Example 4, 7-[1-(Pyridin-4-yl)piperidin-4-ylmethoxy]-1,2,3,4-tetrahydroisoquinoline-2-carboxamide Oxime Dihydrochloride]"
6.10,< 5.00,"N=C(N)N1CCc2ccc(OCC3CCN(Cc4ccncc4)CC3)cc2C1 [Example 22, 7-[1-(Pyridin-4-ylmethyl)piperidin-4-ylmethoxy-1,2,3,4-tetrahydroisoquinoline-2-carboxamidine Trihydrochloride]"
6.70,< 5.00,"N=C(N)N1CCc2ccc(OCCC3(C(=O)O)CCN(c4ccncc4)CC3)cc2C1 [Example 16, 4-[2-(2-Amidino-1,2,3,4-tetrahydroisoquinolin-7-yloxy)ethyl]-1-(pyridin-4-yl)piperidine-4-carboxylic Acid Dihydrochloride]"
6.30,< 5.00,"CC(=N)N1CCC(COc2ccc3c(c2)CN(C(=N)N)CC3)CC1 [Example 29, 7-(1-Acetimidoylpiperidin-4-ylmethoxy)-1,2,3,4-tetrahydroisoquinoline-2-carboxamidine Dihydrochloride]"
6.30,< 5.00,"N=C(N)c1ccc2ccc(OCC3(C(=O)O)CCN(c4ccncc4)CC3)c(Cl)c2c1 [Example 39, 4-(2-Amidino-8-chloronaphthalen-7-yloxymethyl)-1-(pyridin-4-yl)piperidine-4-carboxylic Acid Dihydrochloride]"
7.30,< 5.00,"CC(=N)N1CCC(Oc2ccc(OCc3nc4cc(C(=N)N)ccc4n3CC(=O)c3ccccc3)cc2)CC1 [Example 57, 2-[4-(1-Acetimidoylpiperidin-4-yloxy)phenoxymethyl]-1-phenacylbenzimidazole-5-carboxamidine Dihydrochloride]"
6.70,< 5.00,"CC(=N)N1CCC(Oc2ccc(N(Cc3nc4cc(C(=N)N)ccc4n3C/C=C/c3ccccc3)C(=O)c3ccc(C(=O)O)cc3)cc2)CC1 [Example 109, N-[5-Amidino-1-(3-phenyl-2-propenyl)benzimidazol-2-ylmethyl]-N-[4-(1-acetimidoylpiperidin-4-yloxy)phenyl]carbamoylbenzoic Acid Dihydrochloride]"
6.40,< 5.00,"N=C(N)N1CCc2ccc(SCC3(C(=O)O)CCN(c4ccncc4)CC3)cc2C1 [Example 43, 4-(2-Amidino-1,2,3,4-tetrahydroisoquinolin-7-ylthiomethyl)-1-(pyridin-4-yl)piperidine-4-carboxylic Acid Dihydrochloride]"
7.00,< 5.00,"N=C(N)N1CCc2ccc(OCC3(C(=O)O)CCN(c4ccncn4)CC3)cc2C1 [Example 14, 4-(2-Amidino-1,2,3,4-tetrahydroisoquinolin-7-yloxymethyl)-1-(pyrimidin-4-yl)piperidine-4-carboxylic Acid Dihydrochloride]"
6.52,< 5.00,"CCOC(=O)/C=C/c1cnccc1N1CCC(COc2ccc3c(c2)CN(C(=N)N)CC3)CC1 [Example 33, 3-[4-[4-(2-Amidino-1,2,3,4-tetrahydroisoquinolin-7-yloxymethyl)-piperidin-1-yl]pyridin-3-yl]-2-propenoic Acid Ethyl Ester Dihydrochloride]"
6.52,< 5.00,"N=C(N)c1ccc2c(c1)nc(CN(C(=O)C(=O)O)C1CCN(c3ccncc3)CC1)n2CC(=O)NC1CCCCC1 [Example 61, N-[5-Amidino-1-(cyclohexylcarbamoylmethyl)benzimidazole-2-ylmethyl]-N-[l-(pyridin-4-yl)piperidin-4-yl]aminooxalic Acid Dihydrochloride]"
6.70,–,"CCOC(=O)CCc1cnccc1N1CCC(COc2ccc3c(c2)CN(C(=N)N)CC3)CC1 [Example 88, 3-[4-[4-(2-Amidino-1,2,3,4-tetrahydroisoquinolin-7-yloxymethyl)piperidin-1-yl]pyridin-3-]propionic Acid Ethyl Ester Dihydrochloride]"
6.70,–,"CCOC(=O)C1(CCOc2ccc3c(c2)CN(C(=N)N)CC3)CCN(c2ccncc2)CC1 [Example 15, 4-[2-(2-Amidino-1,2,3,4-tetrahydroisoquinolin-7-yloxy)ethyl]-1-(pyridin-4-yl)piperidine-4-carboxylic Acid Ethyl Ester Dihydrochloride]"
7.22,< 5.00,"N=C(N)N1CCc2ccc(OCC3CCN(c4ccncc4)CC3)cc2C1 [Example 1, 7-[1-(Pyridin-4-yl)piperidin-4-ylmethoxy]-1,2,3,4-tetrahydroisoquinoline-2-carboxamidine Dihydrochloride]"
6.30,< 5.00,"CC(=N)N1CCC(Oc2ccc(OCc3nc4cc(C(=N)N)ccc4n3CC(=O)NC[C@H]3CC[C@H](C(=O)O)CC3)cc2)CC1 [Example 53, trans-4-[2-[4-(1-Acetimidoylpiperidin-4-yloxy)phenoxymethyl]-5-amidinobenzimidazol-1-ylacetylaminomethyl]cyclohexanecarboxylic Acid Dihydrochloride]"
7.10,< 5.00,"CCOC(=O)C1(COc2ccc3c(c2)CN(C(=N)N)CC3)CCN(c2ccncc2)CC1 [Example 6, 4-(2-Amidino-1,2,3,4-tetrahydroisoquinolin-7-yloxymethyl)-1-(pyridin-4-yl)piperidine-4-carboxylic Acid Ethyl Ester Dihydrochloride]"
6.40,< 5.00,"CCOC(=O)C1(COc2ccc3c(c2)CN(C(=N)N)CC3)CCN(c2ccc(C(=N)N)cc2)CC1 [Example 98, 4-(2-Amidino-1,2,3,4-tetrahydroisoquinolin-7-yloxymethyl)-1-(4-amidinophenyl)-piperidine-4-carboxylic Acid Ethyl Ester Dihydrochloride]"
6.15,< 5.00,"N=C(N)N1CCc2ccc(OCC3CCN(CCO)CC3)cc2C1 [Example 21, 7-[1-(2-Hydroxyethyl)piperidin-4-ylmethoxy]-1,2,3,4-tetrahydroisoquinoline-2-carboxamidine Dihydrochloride]"
6.30,< 5.00,"CCOC(=O)C1(COc2ccc3ccc(C(=N)N)cc3c2)CCN(c2ccncc2)CC1 [Example 40, 4-(2-Amidinonaphthalen-7-yloxymethyl)-1-(pyridin-4-yl)piperidine-4-carboxylic Acid Ethyl Ester Dihydrochloride]"
6.22,–,"CCOC(=O)C1(COc2ccc3c(c2)CN(C(=N)N)CC3)CCN(c2ccnc(C)c2)CC1 [Example 12, 4-(2-Amidino-1,2,3,4-tetrahydroisoquinolin-7-yloxymethyl)-1-(2-methylpyridin-4-yl)piperidine-4-carboxylic Acid Ethyl Ester Dihydrochloride]"
6.15,< 5.00,"N=C(N)N1CCc2ccc(SCCC3(C(=O)O)CCN(c4ccncc4)CC3)cc2C1 [Example 44, 4-[2-(2-Amidino-1,2,3,4-tetrahydroisoquinolin-7-ylthio)ethyl]-1-(pyridin-4-yl)piperidine-4-carboxylic Acid Dihydrochloride]"
7.10,–,"N=C(N)c1ccc2c(c1)nc(CN(C(=O)c1ccc(C(=O)O)cc1)c1ccc(OC3CCN(C(=N)NCc4ccccc4)CC3)cc1)n2CC(=O)NC1CCCCC1 [Example 110, N-[5-Amidino-1-(cyclohexylcarbamoylmethyl)benzimidazol-2-ylmethyl]-N-[4-[1-[amino(benzylinino)methyl]piperidin-4-yloxy]phenyl]carbamoylbenzoic Acid Dihydrochloride]"
7.40,< 5.00,"N#CC1(CCOc2ccc3c(c2)CN(C(=N)N)CC3)CCN(c2ccncc2)CC1 [Example 37, 7-[2-[4-Cyano-1-(pyridin-4-yl)piperidin-4-yl]ethoxy]-1,2,3,4-tetrahydroisoquinoline-2-carboxamidine Dihydrochloride]"
7.00,< 5.00,"CCOC(=O)CN(Cc1nc2cc(C(=N)N)ccc2n1CC(=O)NC1CCCCC1)c1ccc(OC2CCN(C(C)=N)CC2)cc1 [Example 62, 2-[N-[4-(1-Acetimidoylpiperidin-4-yloxy)phenyl]-N-ethoxycarbonyl-methylaminomethyl]-1-(cyclohexylcarbamoylmethyl)benzimidazole-5-carboxamidine Dihydrochloride]"
6.70,< 5.00,"N=C(N)N1CCc2ccc(OCC3CCN(c4ccncc4CCC(=O)O)CC3)cc2C1 [Example 89, 3-[4-[4-(2-Amidino-1,2,3,4-tetrahydroisoquinolin-7-yloxymethyl)piperidin-1-yl]pyridin-3-yl]propionic Acid Dihydrochloride]"

# — patent US6562828B1, “Amidine compounds” (Japan Tobacco Inc., priority 1998, dated 2003)
